The text below walks through data of patent US20070056361A1, “Partitioning gas tracer tests” (UNIVERSITY OF DELAWARE office of the Vice Provost for …, priority 2003, published 2007).

The conditions of data set [1]: at 25° C., gas/water, cited from earlier work.
For data set [2] the following is noted: for every 10° C. increase in temperature; cited from earlier work.
A short description of data set [3]: Henry's law constant from gas tracer tests in sand column wetted with distilled water. It is filed as physicochemical. The conditions noted are these: distilled water at 22.5-24.1° C., six trials, ± 95% confidence interval. An excerpt: The experimental procedure used to determine KH was similar to that reported in an earlier study (Deeds, N. E.; McKinney, D. C.; Pope, G. A.; Whitely Jr., G. A. Difluoromethane as partitioning tracer to estimate vadose water saturations. Journal of Environmental Engineering 1999, 125, 630-633). A jacketed glass column 60-cm long and 5-cm in diameter (Ace Glass, Inc., Vineland, N.J.) was packed with 50/70 silica sand (d50=0.26 mm, uniformity index=1.186; U.S. Silica, Ill.) underwater using distilled water. The column was positioned vertically, and suction was applied to the bottom of the column to drain water from the porous medium. […]
A water bath and pump were used to recirculate water in the glass jacket surrounding the porous medium to maintain fluid and gas temperatures between 22.5-24.1° C. during the experiments. […] Tracer concentrations in the gas samples were quantified with a gas chromatograph (Model 8610C, SRI Instruments, Torrance, Calif.): tracers were separated using mol-sieve and silica gel packed columns and then detected with a thermal conductivity (helium) or flame ionization detector (difluoromethane). […]
The Henry's law constant was determined in each of the above tests using the tracer breakthrough curves and the known porosity and water saturation for the porous medium. […]

Data set [4] is described as follows: Henry's law constant from gas tracer tests in sand column wetted with landfill leachate. In kind it is physicochemical. The procedure: Three trials were performed to determine KH for the leachate. The experimental procedures were modified slightly from those described above for distilled water. Here, the column was packed with dry sand, purged with nitrogen, and the leachate was flushed upward in the vertically-mounted column to displace the gas. Nitrogen was then injected into the top of the column to force the mobile water out of the column. This procedure allowed the column to be wetted with the leachate while under anaerobic conditions. Between experimental trials anaerobic conditions were maintained in the column to minimize reactions within the leachate that might alter its composition. The temperatures for the leachate tests ranged between 25.5-26.0° C.
The Henry's law constant was determined in each of the above tests using the tracer breakthrough curves and the known porosity and water saturation for the porous medium. Time moment analysis was used to determine the mean tracer velocities; Rf was computed from eq. 1; and using known n and Sw, KH was computed from eq. 3.
Three PGTT were conducted with landfill leachate to explore the influence of leachate composition on difluoromethane partitioning. The porosity and leachate saturation of the sand column were n=0.41 and Sw=0.17 respectively, while the average interstitial gas velocity used in the tracer tests was 25.2 m/day. […]

Data set [5] in a line: Henry's law constant in batch systems from 4° C. to 50° C. It is filed as physicochemical. Here is the method: Difluoromethane was selected as the partitioning tracer, which partitions into water within the solid waste, while helium was selected as the conservative tracer. A key thermodynamic parameter necessary for interpretation of data from a PGTT is the Henry's law constant of the partitioning tracer. Laboratory tests were conducted in batch systems to determine the Henry's law constant for difluoromethane from 4° C. to 50° C., which covers the temperature range observed in our field tests. In addition, batch experiments were also conducted with filter paper wetted to different degrees to assess the ability of PGTT to measure water in small pores and sorbed to solid surfaces.

The conditions of data set [6]: measured at 25° C. (Worksafe Australia); cited from earlier work.
The conditions of data set [7]: clean water, Deeds et al. 1999; cited from earlier work.

Like-named read-outs stand apart in the source and are kept apart here. Marks after values point to notes of the source that are not given here.

Regarding `[He]` [Helium], the results for the “KH (dimensionless Henry's law constant)” value in data set [1] and in data set [1] (listed as helium) were 106^a and “≈ 100”, respectively.
`CF` [fluoromethane]: the “Increase in KH with temperature” value in data set [2] is recorded as “approximately 20%”.
`FCF` [Difluoromethane]: the “KH (dimensionless Henry's law constant)” value in data set [3] is recorded as 0.47^b; in data set [3] (listed as difluoromethane), 0.47±0.07. The “KH (Henry's law constant)” value in data set [4] (landfill leachate (Cherry Island Landfill), 25.5-26.0° C., three trials, ± 95% confidence interval) was 0.57±0.09; in data set [5] (at 4° C.), 0.34; in data set [5] (at 50° C.), 0.99; in data set [7] it was 0.59. The “Increase of KH in leachate relative to distilled water” value in data set [4] (leachate vs distilled water, mean temperature about 2.5° C. higher) amounted to 20%. Besides, the “Log n-Octanol/Water Partition Coefficient” value in data set [6] is reported as 0.21^c.
